Reference: patent publication US20160051493A1, “METHODS OF TREATMENT OF KERATINOCYTE-DERIVED LESIONS” (THE TRUSTEES OF COLUMBIA UNIVERSITY IN THE CITY OF NEW YORK, priority 2012, published 2016)
“Also recorded” adds a separate entry of the source. Like-named read-outs stand apart in the source and are kept apart here.

What was measured:
[1] = test system: normal human epidermal keratinocytes; assay: Ratiometric fura-2 live-cell calcium imaging of keratinocytes; format: cell-based; settings: for % Responders (undifferentiated) Mean ± SEM or SD: growth conditions, saturating agonist (4αPDD 3 μM, camphor 10 mM, 2-APB 100 μM, capsaicin 1 μM, mustard oil 300 μM), SD for capsaicin and mustard oil; for cytoplasmic Ca2+ signals in undifferentiated keratinocytes: 0.15%, within 1 minute of perfusion, versus vehicle
Method: (§1) Normal human keratinocytes were isolated from human foreskins by undergoing two enzymatic dissociation steps, first in dispase then in trypsin. Cells were cultured in EpiLife supplemented with human keratinocyte growth supplement (HKGS; Invitrogen). For all experiments with undifferentiated cells, keratinocytes were harvested or images at ˜75% confluency. Differentiation was induced by adding CaCl2 to the EpiLife media to reach a final [Ca2+] of 1.2 mM. Cells were typically cultured for 3 days under differentiation conditions before they were assayed. Keratinocytes were cultured for <5 passages. Purified Camphor (CAS #76-22-2), 2-APB (Tocris) or vehicle (1% EtOH)-containing media were used as indicated.
Human keratinocytes and SCC cells were washed in Ringer's solution (in mM: NaCl 140, KCl 5, D-glucose 10, HEPES 10, CaCl2 2, MgCl2 2, pH 7.2) and loaded with 5 μM fura-2AM and 1 μM pluronic (Invitrogen) for 30 minutes in the dark. During live-cell imaging, saturating concentrations of TRP agonists (10 mM Camphor, 100 μM 2-APB 1 μM Capsaicin, 300 μM Mustard oil or 3 μM 4αPDD) in Ringer's were used. Cells were imaged for 20 s to establish a baseline and then acutely treated with each agonist for 60 seconds. Imaging was performed on an Olympus IX81 microscope with a 20× (NA 0.17) objective and a Hamamatsu ORCA-R2 camera. 340- and 380-nm excitation and 540-nm emission filters were used to capture fura-2 fluorescence. Data are expressed as a ratio of fluorescent signals (340/380). All data acquisition was performed in MetaFluor. Data analysis was performed with custom algorithms in IgorPro. Cells with baseline levels ±2 SD above the mean were excluded from analysis as unhealthy. Responders were designated as cells whose 340/380 ratio was ≧20% above baseline.
TRP channels are selectively activated by endogenous and exogenous ligands at micromolar to millimolar concentrations. Since TRP channel activity increases over this range to allow graded Ca^2+ influx, receptor activity levels can be monitored by live-cell Ca^2+ imaging. A ratiometric calcium indicator (Fura-2) was employed to determine whether a panel of TRP-channel agonists elicited cytoplasmic calcium increases in human epidermal keratinocytes. (FIG. 1A-1E, FIG. 2A-2B, and Table 3).
Normal human keratinocytes were cultured in low-calcium media to promote proliferation or in 1.2-mM calcium media to induce differentiation. For live-cell imaging, keratinocytes were then washed and bathed in Ringer's solution containing 2 mM calcium so that calcium signals could be directly compared between cell populations.
In keratinocytes, increased intracellular calcium stimulates the terminal differentiation process. To determine whether camphor oil and its abundant constituents are directly bioactive on epithelial keratinocytes, a ratiometric Ca2+ indictor (Fura-2) was employed to test whether a panel of terpenes elicited cytoplasmic Ca2+ increases in undifferentiated human epidermal keratinocytes (FIG. 19A-19C). Keratinocytes were cultured according to our standard methods. For live-cell imaging, keratinocytes were bathed in Ringer's solution containing 2 mM Ca2+.

[2] = 0.5 to 5 percent ointment or liquid, once or twice a day for two to four weeks; cited from earlier work
[3] = test system: normal human keratinocytes; assay: Keratinocyte cell counts (DAPI), morphology and EdU proliferation assay after 24 h treatment; settings: in the presence of camphor
Method: as §1
Cells were treated with 2-APB or camphor for 24 hours at 37° C., exposed to EdU for 45 min, fixed and stained with DAPI for cell counting. EdU Click-It assays (Invitrogen) were used to assess cell-cycle entry. The cells were then fixed and stained with DAPI. Three fields per well were assayed via a 20× objective and there were 4 wells per treatment in each experiment. EdU=5-ethynyl-2′-deoxyuridine.
As Ca^2+ triggers the commitment switch from proliferation to differentiation in keratinocytes, it was reasoned that increasing intracellular calcium by incubating keratinocytes in TRP agonists might be sufficient to induce this cell-fate switch in low-calcium growth media. To test this hypothesis, normal human keratinocytes were cultured for 24 hours under low-Ca^2+ conditions in the presence of low (12.5 μM), half-maximal (50 μM) and saturating (100 μM) concentrations of 2-APB (FIG. 3A) or camphor (0-8 mM) (FIG. 3E). These TRP agonists were chosen because they reliably elicited intracellular calcium signaling in normal human keratinocytes (FIG. 1A-1E).
As camphor can activate both TRPV3 and TRPV1 channels, these experiments were repeated in the presence of a specific TRPV1 antagonist, AMG-9810 (Gavva et al., 2005).

TRPV3 = settings: reported in literature; cited from earlier work
skin tumors = settings: mouse, in vivo; cited from earlier work
[4] = test system: precancerous lesions and SCCs; format: in vivo; settings: 20% wt/wt in acetone, topical once daily, five weeks
normal keratinocytes = assay: In vivo keratinocyte proliferation (EdU, flow cytometry) in healthy mouse skin; set-up: species or system mice; settings: 20% topical, five consecutive days
Method: Age matched FVB (female mice purchased from Jackson labs) aged 6-8 weeks were shave on their dorsal sides. Mice were then treated for five consecutive days with vehicle, 20% camphor white oil, 20% eucalyptol, 20% α-pinene, 20% dipentene, or 20% γ-terpinene (2-6 mice per group). Mice were then injected with EdU and sacrificed one hour later. The epidermis was isolated and stained for Itgα6, Sca1+, and EDU. Itgα6+Sca1+EdU+ cells were then identified on a flow cytometer.
To test whether effects of camphor white oil on normal keratinocytes are TrpV3 dependent proliferation in TrpV3 mutant and wild type mice treated with camphor oil was analyzed. TrpV3 mutant and wild type mice aged 6-8 weeks were shaved on their dorsal sides. Mice were then treated for five consecutive days with vehicle or 20% camphor oil (4-5 mice per group). Mice were then injected with EdU (5-ethynyl-2′-deoxyuridine) and sacrificed one hour later. The epidermis was isolated and stained for Itga6, Sca1, and EdU. Itga6+Sca1+EdU+ cells were then identified on a flow cytometer to identify cells in the intrafollicular epidermis that are actively proliferating.

[5] = responders F340:F380 increase ≧20%

CCCCCCCCCC(=O)O[C@@H]1[C@@H](C)[C@@]2(O)[C@@H](C=C(CO)C[C@@]3(O)C(=O)C(C)=C[C@@H]23)[C@@H]2C(C)(C)[C@]12OC(=O)CCCCCCCCC [4αPDD, 4α-phorbol-12,13 didecanoate, reference compound]
% Responders (differentiated) Mean ± SEM ([1]; differentiated in 1.2 mM Ca2+, responders F340:F380 increase ≧20%, 4αPDD 3 μM, camphor 10 mM, 2-APB 100 μM): 70.8 ± 11.1%
% Responders (undifferentiated) Mean ± SEM or SD [1, 5]: 84.8 ± 1.6%
keratinocytes with robust increases in intracellular Ca2+ ([1]; growth or differentiation conditions): > 70%

O=c1[nH]cc(F)c(=O)[nH]1 [5-fluorouracil]
cure rates [2]: up to 93%

CC(C)(C)c1ccc(/C=C/C(=O)Nc2ccc3c(c2)OCCO3)cc1 [AMG-9810, (E)-3-(4-t-butylphenyl)-N-(2,3-dihydrobenzo[b][1,4]dioxin-6-yl)acrylamide, reference compound]
effect of TRPV1 inhibition on camphor's effects on keratinocyte proliferation [3]: did not alter

CC1(C)C2CCC1(C)C(O)C2 (centres unmarked) [Borneol, reference compound]
effectiveness as a TRPV3 agonist relative to camphor (TRPV3): more effective than camphor

COc1cc(CNC(=O)CCCC/C=C/C(C)C)ccc1O [Capsaicin, reference compound]
% Responders (undifferentiated) Mean ± SEM or SD [1, 5]: 2.3+/−2.6%

CC1(C)C2CCC1(CS(=O)(=O)O)C(=O)C2=Cc1ccc(C=C2C(=O)C3(CS(=O)(=O)O)CCC2C3(C)C)cc1 [Ecamsule, Terephthalylidene Dicamphor Sulfonic Acid]
Results of safety: against skin tumors in mice (skin tumors): Protects

C=CCN=C=S [Mustard oil, reference compound]
% Responders (undifferentiated) Mean ± SEM or SD [1, 5]: 0.6 ± 1.2%^
% Responders (undifferentiated) Mean ± SEM or SD ([1]; responders F340:F380 increase ≧20%, listed as Mustard Oil): 0.6+/−1.2%
% Responders (undifferentiated) Mean ± SEM or SD ([1]; responders F340:F380 increase ≧20%, listed as mustard oil): 0.6+/−1.2%

C=C(C)[C@H]1CC=C(C)CC1 [dipentene, Dipentene]
premalignant tumors per mouse versus vehicle [4]: antitumor effects
premalignant tumors per mouse versus vehicle ([4]; listed as Dipentene): most striking tumor reductions
keratinocyte proliferation (Itgα6+Sca1+EdU+ cells) compared with vehicle (normal keratinocytes): significant increases

CC12CCC(CC1)C(C)(C)O2 [eucalyptol, Eucalyptol]
cytoplasmic Ca2+ signals in undifferentiated keratinocytes [1]: no effects
keratinocyte proliferation (Itgα6+Sca1+EdU+ cells) compared with vehicle (normal keratinocytes): significant increases

CC1=CCC2CC1C2(C)C (stereo not drawn) [α-pinene, α-Pinene]
cytoplasmic Ca2+ signals in undifferentiated keratinocytes [1]: stimulated detectable calcium signals; also recorded: induced calcium increases
premalignant tumors per mouse versus vehicle [4]: antitumor effects; also recorded: most striking tumor reductions
keratinocyte proliferation (Itgα6+Sca1+EdU+ cells) compared with vehicle (normal keratinocytes): significant increases

CC1=CCC(C(C)C)=CC1 [γ-terpinene, γ-Terpinene]
keratinocyte proliferation (Itgα6+Sca1+EdU+ cells) compared with vehicle (normal keratinocytes): significant increases
